Several values for one entry are separate records, joined by “and”; a condition that tells them apart may be missing. Equal entries are not always repeated. Structures can show the parent of a compound that is named as a salt.
Legend:
[1] = system: Ephestia kuehniella (50 eggs); details: in vivo
[2] = system: Sitophilus granarius, Ephestia kuehniella eggs, Tribolium castaneum and brood; details: in vivo
[3] = system: Tribolium castaneum 30 live beetles and brood; details: in vivo
[4] = system: Sitophilus granarius (broodmixture); details: in vivo
insect eggs = details: in vivo; cited from earlier work

SMILES	minimum concentration for achieving an ovicidal action (insect eggs)	further results
O=S(=O)(F)F [SO2F2, sulfuryl fluoride]	–	Offspr. (offspring in the fumigation test) [1]: 0; offspring produced [2]: offspring were produced; Offspr. (offspring in the fumigation test) [3]: 3 beetles and 4 beetles and 5 beetles; Offspr. (offspring in the fumigation test) [4]: 0 beetles
CC#N [acetonitrile]	10 g/m^3	–
O=C=S [carbonyl sulfide]	5 g/m^3	–
COC=O [methyl formate]	20 g/m^3	–
CN=C=S [methyl isothiocyanate]	5 g/m^3	–
